PubChem BioAssay AID1963984 (Molecular Pharmacology Branch, DTP, NCI, 2024)

System: 233499-124-R-J3-PDC spheroids with HUVEC/MSC, viability
Assay: Anticancer human tumor 233499-124-R-J3-PDC patient-derived colon adenocarcinoma cell line growth inhibition [PI3K]
Conditions: for viability, T/C: stronger effect = lower value
Summary of the method: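 Targeted small molecules plus PI3K inhibitors, half-log dose series from Cmax (default top 10 microM), were applied to heterotypic spheroids of cancer cells with HUVEC and MSCs. Viability indicated growth inhibition.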

[1] = curve of first compound, second compound 0.0316 µM
[2] = curve of first compound, second compound 0.1 µM
[3] = curve of first compound, second compound 0.316 µM
[4] = curve of first compound, second compound 1 µM
[5] = curve of first compound, second compound 3.16 µM
[6] = curve of first compound, second compound 10 µM
[7] = second compound 0.0316 µM, first compound 0.00316 µM
[8] = second compound 0.0316 µM, first compound 0.01 µM
[9] = second compound 0.0316 µM, first compound 0.0316 µM
[10] = second compound 0.0316 µM, first compound 0.1 µM
[11] = second compound 0.1 µM, first compound 0.00316 µM
[12] = second compound 0.1 µM, first compound 0.01 µM
[13] = second compound 0.1 µM, first compound 0.0316 µM
[14] = second compound 0.1 µM, first compound 0.1 µM
[15] = second compound 0.316 µM, first compound 0.00316 µM
[16] = second compound 0.316 µM, first compound 0.01 µM
[17] = second compound 0.316 µM, first compound 0.0316 µM
[18] = second compound 0.316 µM, first compound 0.1 µM
[19] = second compound 1 µM, first compound 0.00316 µM
[20] = second compound 1 µM, first compound 0.01 µM
[21] = second compound 1 µM, first compound 0.0316 µM
[22] = second compound 1 µM, first compound 0.1 µM
[23] = second compound 3.16 µM, first compound 0.00316 µM
[24] = second compound 3.16 µM, first compound 0.01 µM
[25] = second compound 3.16 µM, first compound 0.0316 µM
[26] = second compound 3.16 µM, first compound 0.1 µM
[27] = second compound 10 µM, first compound 0.00316 µM
[28] = second compound 10 µM, first compound 0.01 µM
[29] = second compound 10 µM, first compound 0.0316 µM
[30] = second compound 10 µM, first compound 0.1 µM
[31] = second compound 0.0316 µM, first compound 0.316 µM
[32] = second compound 0.0316 µM, first compound 1 µM
[33] = second compound 0.1 µM, first compound 0.316 µM
[34] = second compound 0.1 µM, first compound 1 µM
[35] = second compound 0.316 µM, first compound 0.316 µM
[36] = second compound 0.316 µM, first compound 1 µM
[37] = second compound 1 µM, first compound 0.316 µM
[38] = second compound 1 µM, first compound 1 µM
[39] = second compound 3.16 µM, first compound 0.316 µM
[40] = second compound 3.16 µM, first compound 1 µM
[41] = second compound 10 µM, first compound 0.316 µM
[42] = second compound 10 µM, first compound 1 µM
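Further: spheroids exposed to agents for seven days before readout.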
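Wherever viability, T/C is given: percent viability relative to DMSO vehicle control taken as 100%.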

In the case of `Cn1ncnc1[C@H]1c2n[nH]c(=O)c3cc(F)cc(c23)N[C@@H]1c1ccc(F)cc1` + Cc1nc(NC(=O)N2CCCC2C(N)=O)sc1-c1ccnc(C(C)(C)C(F)(F)F)c1, the IC50 [1] is reported as > 100 nM, the IC50 [2] is reported as > 100 nM and the IC50 [3] is reported as > 100 nM. For the same compound, the IC50 [4] was > 100 nM, the IC50 [5] was 1.84 nM and the IC50 [6] was < 0.316 nM. For the same compound, the viability, T/C (second compound 0.0316 µM, first compound 0.000316 µM) was 101%, the viability, T/C (second compound 0.0316 µM, first compound 0.001 µM) was 97.2% and the viability, T/C [7] was 95.9%. The viability, T/C [8] was 109%, the viability, T/C [9] was 81.1% and the viability, T/C [10] was 94.8%. It also gave a viability, T/C (second compound 0.1 µM, first compound 0.000316 µM) of 106%, a viability, T/C (second compound 0.1 µM, first compound 0.001 µM) of 77.2% and a viability, T/C [11] of 85.2%. The viability, T/C [12] was 91.3%, the viability, T/C [13] was 75.6% and the viability, T/C [14] was 90.3%. The viability, T/C (second compound 0.316 µM, first compound 0.000316 µM) was 81.5%, the viability, T/C (second compound 0.316 µM, first compound 0.001 µM) was 89.5% and the viability, T/C [15] was 85.3%. The viability, T/C [16] was 73.8%, the viability, T/C [17] was 58.4% and the viability, T/C [18] was 54.7%. It also gave a viability, T/C (second compound 1 µM, first compound 0.000316 µM) of 87.2%, a viability, T/C (second compound 1 µM, first compound 0.001 µM) of 65% and a viability, T/C [19] of 50.3%. For the same compound, the viability, T/C [20] was 57.4%, the viability, T/C [21] was 55.5% and the viability, T/C [22] was 65%. For the same compound, the viability, T/C (second compound 3.16 µM, first compound 0.000316 µM) was 52.6%, the viability, T/C (second compound 3.16 µM, first compound 0.001 µM) was 43.5% and the viability, T/C [23] was 61.8%. For the same compound, the viability, T/C [24] was 41%, the viability, T/C [25] was 49.4% and the viability, T/C [26] was 44.7%. It also gave a viability, T/C (second compound 10 µM, first compound 0.000316 µM) of 28.2%, a viability, T/C (second compound 10 µM, first compound 0.001 µM) of 30.7% and a viability, T/C [27] of 37.6%. It also gave a viability, T/C [28] of 29.1%, a viability, T/C [29] of 22.8% and a viability, T/C [30] of 22.5%.
For `CCN1CCN(Cc2ccc(Nc3ncc(F)c(-c4cc(F)c5nc(C)n(C(C)C)c5c4)n3)nc2)CC1` + Cc1nc(NC(=O)N2CCCC2C(N)=O)sc1-c1ccnc(C(C)(C)C(F)(F)F)c1, the IC50 [1] was 547 nM, the IC50 [2] was 658 nM and the IC50 [3] was 164 nM. The IC50 [4] was 36 nM, the IC50 [5] was 7.26 nM and the IC50 [6] was < 3.16 nM. For the same compound, the viability, T/C [7] was 67.3%, the viability, T/C [8] was 90.7% and the viability, T/C [9] was 74%. The viability, T/C [10] was 79.7%, the viability, T/C [31] was 59.5% and the viability, T/C [32] was 39.6%. The viability, T/C [11] was 72.5%, the viability, T/C [12] was 86.7% and the viability, T/C [13] was 67.5%. For the same compound, the viability, T/C [14] was 52.6%, the viability, T/C [33] was 66.6% and the viability, T/C [34] was 43.4%. It also gave a viability, T/C [15] of 94.8%, a viability, T/C [16] of 79.2% and a viability, T/C [17] of 71.9%. The viability, T/C [18] was 47.6%, the viability, T/C [35] was 49.5% and the viability, T/C [36] was 30.7%. It also gave a viability, T/C [19] of 52.5%, a viability, T/C [20] of 49.5% and a viability, T/C [21] of 49.7%. For the same compound, the viability, T/C [22] was 49.2%, the viability, T/C [37] was 38.4% and the viability, T/C [38] was 21.3%. For the same compound, the viability, T/C [23] was 55.4%, the viability, T/C [24] was 49.1% and the viability, T/C [25] was 37.7%. For the same compound, the viability, T/C [26] was 36.6%, the viability, T/C [39] was 25% and the viability, T/C [40] was 24.4%. It also gave a viability, T/C [27] of 28.1%, a viability, T/C [28] of 21.9% and a viability, T/C [29] of 27.6%. It also gave a viability, T/C [30] of 21.1%, a viability, T/C [41] of 21.3% and a viability, T/C [42] of 20.7%.
`CC(C)NCC(C(=O)N1CCN(c2ncnc3c2C(C)CC3O)CC1)c1ccc(Cl)cc1` (stereo unspecified) was tested, and the viability, T/C (compound 0.0316 µM) was 97.7% [middle of 4 runs], the viability, T/C (compound 0.316 µM) was 94% [middle of 4 runs] and the viability, T/C (compound 1 µM) was 102% [middle of 4 runs]. For the same compound, the viability, T/C (compound 3.16 µM) was 94.5% [middle of 4 runs] and the IC50 (curve of compound) was > 10000 nM.
With `CC(C)n1nc(-c2ccc3oc(N)nc3c2)c2c(N)ncnc21` the viability, T/C (compound 0.001 µM) was 94.8% [middle of 4 runs], the viability, T/C (compound 0.00316 µM) was 89.4% [middle of 4 runs] and the viability, T/C (compound 0.01 µM) was 85.9% [middle of 4 runs]. For the same compound, the viability, T/C (compound 0.0316 µM) was 82.9% [middle of 4 runs], the viability, T/C (compound 0.1 µM) was 58.7% [middle of 4 runs] and the IC50 (curve of compound) was > 100 nM.
`CC(Nc1ncnc2nc[nH]c12)c1cc2cccc(Cl)c2c(=O)n1-c1ccccc1` (stereo unspecified) was tested, and the viability, T/C (compound 0.0316 µM) was 93.9% [middle of 8 runs], the viability, T/C (compound 0.1 µM) was 97.2% [middle of 8 runs] and the viability, T/C (compound 0.316 µM) was 95.8% [middle of 8 runs]. For the same compound, the viability, T/C (compound 1 µM) was 103% [middle of 8 runs], the viability, T/C (compound 3.16 µM) was 100% [middle of 8 runs] and the viability, T/C (compound 10 µM) was 89.7% [middle of 8 runs]. The IC50 (compound alone, run of 05/09/2023) was > 10000 nM.
In the case of `Cn1ncnc1[C@H]1c2n[nH]c(=O)c3cc(F)cc(c23)N[C@@H]1c1ccc(F)cc1`, the viability, T/C (compound 0.000316 µM) is reported as 100% [middle of 4 runs], the viability, T/C (compound 0.001 µM) is reported as 99.6% [middle of 4 runs] and the viability, T/C (compound 0.0316 µM) is reported as 103% [middle of 4 runs]. The viability, T/C (compound 0.1 µM) was 89% [middle of 4 runs] and the IC50 (curve of compound) was > 100 nM.
`CC1(C)CCC(Nc2ncc(C(F)(F)F)c(-c3c[nH]c4c(P(C)(C)=O)c(C#N)ccc34)n2)CN1` (stereo unspecified) was tested, and the viability, T/C (compound 0.0316 µM) was 66.7% [middle of 4 runs], the viability, T/C (compound 0.316 µM) was 46.9% [middle of 4 runs] and the viability, T/C (compound 1 µM) was 26.5% [middle of 4 runs]. For the same compound, the viability, T/C (compound 3.16 µM) was 29.1% [middle of 4 runs] and the viability, T/C (compound 10 µM) was 5.67% [middle of 4 runs].
With `C=CC(=O)N1CCN(c2nc(=O)n(-c3c(C)ccnc3C(C)C)c3nc(-c4c(O)cccc4F)c(F)cc23)C(C)C1` (stereo unspecified) + CC(Nc1ncnc2nc[nH]c12)c1cc2cccc(Cl)c2c(=O)n1-c1ccccc1 the IC50 [1] was > 10000 nM, the IC50 [2] was > 10000 nM and the IC50 [3] was > 10000 nM. For the same compound, the IC50 [4] was > 10000 nM, the IC50 [5] was > 10000 nM and the IC50 [6] was > 10000 nM. For the same compound, the viability, T/C [9] was 103%, the viability, T/C [10] was 89.2% and the viability, T/C [31] was 81.2%. It also gave a viability, T/C [32] of 84.3%, a viability, T/C (second compound 0.0316 µM, first compound 3.16 µM) of 85.8% and a viability, T/C (second compound 0.0316 µM, first compound 10 µM) of 91.8%. For the same compound, the viability, T/C [13] was 91%, the viability, T/C [14] was 87.4% and the viability, T/C [33] was 92%. The viability, T/C [34] was 79.8%, the viability, T/C (second compound 0.1 µM, first compound 3.16 µM) was 88.1% and the viability, T/C (second compound 0.1 µM, first compound 10 µM) was 96.8%. The viability, T/C [17] was 81.1%, the viability, T/C [18] was 86.4% and the viability, T/C [35] was 87.4%. For the same compound, the viability, T/C [36] was 88.8%, the viability, T/C (second compound 0.316 µM, first compound 3.16 µM) was 90% and the viability, T/C (second compound 0.316 µM, first compound 10 µM) was 82.3%. The viability, T/C [21] was 96.6%, the viability, T/C [22] was 89.4% and the viability, T/C [37] was 87.8%. For the same compound, the viability, T/C [38] was 88.4%, the viability, T/C (second compound 1 µM, first compound 3.16 µM) was 92.9% and the viability, T/C (second compound 1 µM, first compound 10 µM) was 93.3%. The viability, T/C [25] was 91.3%, the viability, T/C [26] was 90.9% and the viability, T/C [39] was 78.3%. It also gave a viability, T/C [40] of 79.7%, a viability, T/C (second compound 3.16 µM, first compound 3.16 µM) of 71.6% and a viability, T/C (second compound 3.16 µM, first compound 10 µM) of 89%. The viability, T/C [29] was 80.9%, the viability, T/C [30] was 82.5% and the viability, T/C [41] was 81.8%. It also gave a viability, T/C [42] of 97.3%, a viability, T/C (second compound 10 µM, first compound 3.16 µM) of 69.4% and a viability, T/C (second compound 10 µM, first compound 10 µM) of 88.3%.
For `Cc1nc(NC(=O)N2CCCC2C(N)=O)sc1-c1ccnc(C(C)(C)C(F)(F)F)c1` (stereo unspecified), the viability, T/C (compound 0.0316 µM) was 79.1% [middle of 7 runs] and the viability, T/C (compound 0.1 µM) was 88.6% [middle of 8 runs].
